Holding throughout (format): cell-based
The target in test [1] is T1, human EGFR exon 20 H773_V774insNPH (Homo sapiens, UniProt P00533, INS773NPH).
T1 construct: host or cells: Ba/F3
Briefly: EGFR Exon20 NPH insertion cellular phosphorylation inhibition (MSD pEGFR Y1068/total EGFR).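 Also: IL3-independent Ba/F3 cells with constitutively phosphorylated EGFR, compound exposure at 37 °C under 5% CO2, electrochemiluminescent MSD measurement of the p-EGFR to total EGFR ratio.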 As to conditions: Ba/F3 EGFR NPH ins cells, 4 h compound, p-EGFR(Y1068)/total EGFR.
Experimental: One day before the test, WT or mutant cells were seeded in 96 well plates at appropriate concentrations with corresponding growth media supplemented with 1% FBS, and incubated overnight. The next day, tested compounds at a series of concentrations were added into each individual well of the plates, and the plates were incubated for 4 h at 37° C. with 5% CO2.
The EGFR (Y1068) phosphorylation level (activity) of cells in each well were then measured with MSD kit named “MULTI-SPOT®96 4-Spot HB Prototype EGFR Triplex [sequence]: pEGFR(Tyr1068),pEGFR(Tyr1173), Total EGFR” according to the manufacturer’s instruction (MESO SCALE DISCOVERY, Cat# N45ZB-1). The assay is an electrochemiluminescent method for determining both phosphorylated and total EGFR of cells with an MSD SECTOR® Imager and the ratio of p-EGFR/total EGFR can be generated by the machine.

In test [2] the target is T2, human EGFR exon 20 V769_D770insASV (Homo sapiens, UniProt P00533, INS769ASV).
T2 construct: expressed in transfected cells; host or cells: Ba/F3 (DSMZ ACC-300), lentiviral transduction, puromycin selection, IL3 depletion
Briefly: EGFR Exon20 ASV insertion cellular phosphorylation inhibition (MSD pEGFR Y1068/total EGFR).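 Also: electrochemiluminescent readout on an MSD SECTOR Imager, IL3-independent transduced cells in medium with 1% FBS, compound concentration series at 37 °C and 5% CO2.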 As to conditions: Ba/F3 EGFR ASV ins cells, 4 h compound, p-EGFR(Y1068)/total EGFR.

In the next test the target is T3, EGFR L858R&T790M (Homo sapiens, UniProt P00533, L858R/T790M).
T3 construct: host or cells: NCI-H1975
Briefly: EGFR L858R and T790M cellular phosphorylation inhibition in NCI-H1975 (MSD).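 Also: phosphorylated and total EGFR detected by electrochemiluminescence, cells exposed to compound in medium containing 1% FBS at 37 °C.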 As to conditions: NCI-H1975 cells, 4 h compound, p-EGFR(Y1068)/total EGFR; read-out: EGFR L858R and T790M mutation IC50.

For test [3], the target named is T4, human Her2 exon 20 insertion mutation YVMA (Homo sapiens, UniProt P04626, INS775YVMA).
T4 construct: expressed in transfected cells; host or cells: NIH-3T3, lentiviral transduction, puromycin selection
Briefly: Her2 Exon 20 YVMA insertion cellular phosphorylation inhibition (MSD p-Her2 Y1248/total Her2).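 Also: lentivirally transduced NIH-3T3 cells in 1% FBS medium, electrochemiluminescent MSD read-out, graded compound concentrations at 37 °C.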 The conditions noted are these: Her2 YVMAins cells, 4 h compound.

The next test concerns the target T5, WT EGFR (Homo sapiens, UniProt P00533).
T5 construct: host or cells: A-431
Briefly: WT EGFR cellular phosphorylation inhibition in A-431 (hEGF stimulated, MSD).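 Also: electrochemiluminescence read-out of EGFR Tyr1068 phosphorylation expressed as ratio to total EGFR, cells kept in medium with 1% FBS, compounds tested as a concentration series.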 The conditions noted are these: A431 cells, 4 h compound, then 100 ng/ml hEGF 10 min.

A further test relates to Ba/F3 EGFR NPH ins cells. Briefly: Cell proliferation, Ba/F3 EGFR NPH ins (CellTiter-Glo, 72 h).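 Also: IL3-independent cells carrying constitutively phosphorylated EGFR, compound dilution series, viable cells quantified by ATP luminescence, growth relative to DMSO wells after subtracting pre-dosing (day 0) baseline.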 The conditions noted are these: Ba/F3 EGFR, 72 h, Ba/F3 EGFR NPH ins, 72 h proliferation; read-out: EGFR Exon20 NPH insertion GI50. On the technique in general: ATP-based viability assays read luminescence as a measure of living cells.
For the next test, the system named is Ba/F3 EGFR ASV ins cells. Nature of the test: Cell proliferation, Ba/F3 EGFR ASV ins (CellTiter-Glo, 72 h).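 Also: IL3-independent Ba/F3 cells transduced with EGFR V769_D770insASV, cellular ATP luminescence after compound exposure, growth relative to DMSO control with the day-0 baseline reading subtracted.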 The conditions noted are these: Ba/F3 EGFR, 72 h, Ba/F3 EGFR ASV ins, 72 h proliferation; read-out: EGFR Exon20 ASV insertion GI50.
The subject of test [4] is NCI-H1975 EGFR L858R/T790M cells. Briefly: Cell proliferation, NCI-H1975 EGFR L858R/T790M (CellTiter-Glo, 72 h).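 Also: viable cells quantified by luciferase-based ATP luminescence, proliferation expressed relative to DMSO-treated wells (100%) after subtracting a parallel plate read at the time of dosing.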 The conditions noted are these: Homo sapiens, NCI-H1975, 72 h, NCI-H1975, 72 h proliferation; read-out: EGFR L858R and T790M mutation GI50.
Test [5] deals with Her2 exon 20 insertion YVMA transduced NIH-3T3 cell line. Briefly: Cell proliferation, Her2 YVMAins NIH-3T3 (CellTiter-Glo, 72 h).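 Also: viable cells quantified by ATP luminescence, growth over a day-zero baseline plate expressed as percent of DMSO control growth, compound dilution series in 10% FBS medium.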 As to conditions: Mus musculus, NIH3T3, 72 h, Her2 YVMAins cells, 72 h proliferation; read-out: Her2 Exon 20 YVMA insertion GI50.
In another test the test system is WT EGFR cell line A-431. Briefly: Cell proliferation, WT EGFR A431 (CellTiter-Glo, 72 h).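 Also: proliferation from a luminescent ATP viability signal, expressed as 100 × (treated minus time-zero plate) over (DMSO control minus time-zero plate), cells grown with 10% FBS.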 The conditions noted are these: Homo sapiens, A-431, 72 h, A431, 72 h proliferation; read-out: EGFR WT A431 GI50.
A further test relates to OCI-LY-10 cells. Briefly: BTK (wt) cell proliferation, OCI-LY-10 (CellTiter-Glo, 72 h).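 Also: viable cells quantified via cellular ATP luminescence, proliferation given as percent of DMSO control after subtracting a duplicate plate read at time of dosing.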 As to conditions: Homo sapiens, OCI-Ly10, 72 h, OCI-LY-10 cells, 72 h, CellTiter-Glo; read-out: BTK WT OCI-LY-10 GI50.
A further test relates to TMD-8 cells. Nature of the test: BTK (wt) cell proliferation, TMD-8 (CellTiter-Glo, 72 h).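 Also: viable cells quantified by ATP-based luminescence, proliferation expressed as percent of DMSO control after subtracting a time-zero baseline plate read at dosing.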 The conditions noted are these: Homo sapiens, TMD8, 72 h, TMD-8 cells, 72 h, CellTiter-Glo; read-out: BTK WT TMD-8 GI50.
A further test relates to Ri-1 cells. Briefly: BTK (wt) cell proliferation, Ri-1 (CellTiter-Glo, 72 h).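 Also: viable cells quantified as cellular ATP luminescence, proliferation normalized to a time-zero plate and the DMSO control, compounds tested across a dilution series.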 As to conditions: Ri-1, 72 h, Ri-1 cells, 72 h, CellTiter-Glo; read-out: BTK WT Ri-1 GI50.
Another test has as its system DB cells. Nature of the test: BTK (wt) cell proliferation, DB (CellTiter-Glo, 72 h).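 Also: DB cells in 384-well plates given a dilution series of compound, viable cells read by ATP luminescence, growth expressed versus DMSO control after subtracting a time-zero plate reading.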 As to conditions: Homo sapiens, DB, DB cells, CellTiter-Glo, read-out: Non-BCR activated DB GI50.

T1 sequence (P00533 with tags, fused parts or gaps INS773NPH): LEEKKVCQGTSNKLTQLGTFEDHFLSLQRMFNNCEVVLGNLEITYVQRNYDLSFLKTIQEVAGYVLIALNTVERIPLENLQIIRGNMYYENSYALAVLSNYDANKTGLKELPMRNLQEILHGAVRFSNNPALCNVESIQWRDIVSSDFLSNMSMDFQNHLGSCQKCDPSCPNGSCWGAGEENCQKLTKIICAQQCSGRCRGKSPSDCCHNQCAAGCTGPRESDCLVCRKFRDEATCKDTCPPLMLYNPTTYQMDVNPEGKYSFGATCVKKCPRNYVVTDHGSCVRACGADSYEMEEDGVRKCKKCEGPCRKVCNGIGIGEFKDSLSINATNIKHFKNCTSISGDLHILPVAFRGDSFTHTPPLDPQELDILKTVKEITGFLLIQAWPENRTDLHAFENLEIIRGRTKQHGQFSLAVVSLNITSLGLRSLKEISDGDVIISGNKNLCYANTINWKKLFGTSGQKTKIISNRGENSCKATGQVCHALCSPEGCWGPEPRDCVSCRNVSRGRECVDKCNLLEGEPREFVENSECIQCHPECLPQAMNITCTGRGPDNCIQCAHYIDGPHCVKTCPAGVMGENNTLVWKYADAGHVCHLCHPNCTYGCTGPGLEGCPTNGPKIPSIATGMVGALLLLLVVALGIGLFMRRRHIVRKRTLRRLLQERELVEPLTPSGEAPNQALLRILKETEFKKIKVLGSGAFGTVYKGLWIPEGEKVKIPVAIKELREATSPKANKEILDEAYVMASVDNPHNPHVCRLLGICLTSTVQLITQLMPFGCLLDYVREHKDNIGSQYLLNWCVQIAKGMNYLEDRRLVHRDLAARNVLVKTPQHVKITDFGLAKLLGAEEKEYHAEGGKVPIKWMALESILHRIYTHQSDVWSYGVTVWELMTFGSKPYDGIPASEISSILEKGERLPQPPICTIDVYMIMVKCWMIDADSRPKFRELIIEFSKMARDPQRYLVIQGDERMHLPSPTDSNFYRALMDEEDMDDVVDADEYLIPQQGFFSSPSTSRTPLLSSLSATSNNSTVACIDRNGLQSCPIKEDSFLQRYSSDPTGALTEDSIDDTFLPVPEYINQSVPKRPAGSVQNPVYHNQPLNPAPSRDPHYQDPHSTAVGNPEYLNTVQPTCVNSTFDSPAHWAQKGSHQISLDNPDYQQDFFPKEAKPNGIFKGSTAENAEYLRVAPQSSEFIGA
T3 sequence (P00533 25-1210 T790M/L858R): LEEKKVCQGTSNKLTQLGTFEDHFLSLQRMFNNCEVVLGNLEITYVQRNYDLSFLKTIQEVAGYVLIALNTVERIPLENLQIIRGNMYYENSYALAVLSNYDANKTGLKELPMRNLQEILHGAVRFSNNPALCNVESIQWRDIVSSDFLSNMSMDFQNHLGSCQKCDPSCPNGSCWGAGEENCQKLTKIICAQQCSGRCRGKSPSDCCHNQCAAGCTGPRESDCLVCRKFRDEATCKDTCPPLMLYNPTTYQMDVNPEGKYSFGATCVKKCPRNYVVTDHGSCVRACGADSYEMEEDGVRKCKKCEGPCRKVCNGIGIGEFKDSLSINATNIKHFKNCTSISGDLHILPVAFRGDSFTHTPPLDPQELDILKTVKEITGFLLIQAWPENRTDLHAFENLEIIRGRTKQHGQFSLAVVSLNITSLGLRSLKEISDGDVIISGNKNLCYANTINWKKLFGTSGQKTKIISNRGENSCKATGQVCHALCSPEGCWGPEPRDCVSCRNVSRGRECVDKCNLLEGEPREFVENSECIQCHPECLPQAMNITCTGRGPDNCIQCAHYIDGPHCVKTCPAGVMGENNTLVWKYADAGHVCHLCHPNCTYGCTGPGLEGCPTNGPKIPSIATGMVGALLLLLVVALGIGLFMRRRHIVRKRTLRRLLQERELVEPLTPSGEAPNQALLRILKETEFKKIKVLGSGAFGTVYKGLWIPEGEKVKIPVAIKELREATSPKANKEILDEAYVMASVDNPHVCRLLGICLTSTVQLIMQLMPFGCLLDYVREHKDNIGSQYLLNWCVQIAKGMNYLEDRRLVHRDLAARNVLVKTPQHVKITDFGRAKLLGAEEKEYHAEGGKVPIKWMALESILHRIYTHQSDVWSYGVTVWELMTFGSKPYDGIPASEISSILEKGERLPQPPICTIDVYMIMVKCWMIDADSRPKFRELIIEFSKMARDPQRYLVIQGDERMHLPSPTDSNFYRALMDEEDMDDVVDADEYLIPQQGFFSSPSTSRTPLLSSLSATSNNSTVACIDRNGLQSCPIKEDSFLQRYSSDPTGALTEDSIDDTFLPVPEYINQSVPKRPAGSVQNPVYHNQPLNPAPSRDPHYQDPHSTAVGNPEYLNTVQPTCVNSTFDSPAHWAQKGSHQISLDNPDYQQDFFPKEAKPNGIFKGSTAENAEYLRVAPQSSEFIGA
T2 sequence (P00533 with tags, fused parts or gaps INS769ASV): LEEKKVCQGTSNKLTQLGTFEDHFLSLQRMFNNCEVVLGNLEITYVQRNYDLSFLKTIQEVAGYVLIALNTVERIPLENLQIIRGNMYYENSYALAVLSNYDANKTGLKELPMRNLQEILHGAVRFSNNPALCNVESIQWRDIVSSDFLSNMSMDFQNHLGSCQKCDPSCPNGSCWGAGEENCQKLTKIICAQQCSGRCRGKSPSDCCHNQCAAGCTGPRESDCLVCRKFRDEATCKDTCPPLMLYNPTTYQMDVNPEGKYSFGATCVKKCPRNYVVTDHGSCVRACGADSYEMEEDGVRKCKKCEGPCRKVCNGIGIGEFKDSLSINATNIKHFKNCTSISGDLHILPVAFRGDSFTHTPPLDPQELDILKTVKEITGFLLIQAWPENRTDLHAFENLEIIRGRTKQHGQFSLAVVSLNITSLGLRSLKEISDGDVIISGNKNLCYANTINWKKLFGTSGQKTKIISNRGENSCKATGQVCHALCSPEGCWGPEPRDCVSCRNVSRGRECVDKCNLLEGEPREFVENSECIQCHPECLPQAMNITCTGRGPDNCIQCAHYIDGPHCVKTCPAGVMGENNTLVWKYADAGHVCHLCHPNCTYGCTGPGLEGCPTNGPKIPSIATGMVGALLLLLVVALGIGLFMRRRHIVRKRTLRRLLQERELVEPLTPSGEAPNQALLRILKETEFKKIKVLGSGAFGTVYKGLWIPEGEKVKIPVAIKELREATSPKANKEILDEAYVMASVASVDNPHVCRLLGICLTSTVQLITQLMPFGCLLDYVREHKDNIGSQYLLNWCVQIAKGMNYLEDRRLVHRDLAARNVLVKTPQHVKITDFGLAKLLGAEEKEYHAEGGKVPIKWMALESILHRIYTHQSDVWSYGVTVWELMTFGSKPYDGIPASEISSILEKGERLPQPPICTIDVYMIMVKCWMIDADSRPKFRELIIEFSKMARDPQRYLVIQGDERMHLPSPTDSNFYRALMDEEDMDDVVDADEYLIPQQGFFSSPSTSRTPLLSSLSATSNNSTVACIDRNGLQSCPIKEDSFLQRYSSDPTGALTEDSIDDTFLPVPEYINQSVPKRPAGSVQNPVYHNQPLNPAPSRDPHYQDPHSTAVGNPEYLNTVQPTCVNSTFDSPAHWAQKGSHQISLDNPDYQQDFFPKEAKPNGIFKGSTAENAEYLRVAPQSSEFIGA
T5 sequence (P00533 25-1210): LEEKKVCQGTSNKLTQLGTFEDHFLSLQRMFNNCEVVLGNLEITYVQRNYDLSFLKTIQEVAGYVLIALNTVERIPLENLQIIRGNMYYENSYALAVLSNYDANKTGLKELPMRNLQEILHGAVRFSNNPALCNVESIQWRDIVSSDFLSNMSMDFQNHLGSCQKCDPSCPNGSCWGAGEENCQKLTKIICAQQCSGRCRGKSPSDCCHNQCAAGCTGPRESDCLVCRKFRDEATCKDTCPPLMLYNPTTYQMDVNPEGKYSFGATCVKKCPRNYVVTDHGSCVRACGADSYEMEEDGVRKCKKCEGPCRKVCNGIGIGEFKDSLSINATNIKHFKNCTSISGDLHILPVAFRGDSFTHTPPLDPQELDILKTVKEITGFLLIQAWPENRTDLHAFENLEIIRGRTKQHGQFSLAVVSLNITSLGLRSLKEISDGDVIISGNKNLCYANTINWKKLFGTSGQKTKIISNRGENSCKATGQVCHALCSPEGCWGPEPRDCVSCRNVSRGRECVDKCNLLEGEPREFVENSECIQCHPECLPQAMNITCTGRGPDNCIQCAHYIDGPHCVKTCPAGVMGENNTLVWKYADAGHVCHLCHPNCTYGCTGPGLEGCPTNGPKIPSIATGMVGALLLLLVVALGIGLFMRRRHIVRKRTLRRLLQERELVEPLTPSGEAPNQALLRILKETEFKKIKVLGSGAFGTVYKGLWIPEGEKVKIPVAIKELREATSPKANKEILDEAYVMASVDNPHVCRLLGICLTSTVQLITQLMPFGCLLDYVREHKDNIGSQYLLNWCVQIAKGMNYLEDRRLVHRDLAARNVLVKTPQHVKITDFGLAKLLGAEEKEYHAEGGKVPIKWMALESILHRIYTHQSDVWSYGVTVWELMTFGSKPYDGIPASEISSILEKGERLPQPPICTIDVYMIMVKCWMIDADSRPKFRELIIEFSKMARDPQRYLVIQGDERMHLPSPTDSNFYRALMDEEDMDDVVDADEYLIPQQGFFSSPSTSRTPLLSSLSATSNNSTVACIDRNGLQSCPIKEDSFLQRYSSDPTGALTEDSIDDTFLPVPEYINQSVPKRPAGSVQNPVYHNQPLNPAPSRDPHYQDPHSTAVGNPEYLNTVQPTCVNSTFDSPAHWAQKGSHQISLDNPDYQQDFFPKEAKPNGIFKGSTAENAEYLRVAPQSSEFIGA

Regarding `C=CC(=O)Nc1cc(Nc2ncnc(Nc3cc(F)c(F)cc3C(C)(C)O)n2)c(OC)cc1N1CC[C@@H](N(C)C)C1` [Compound 27, (R)-N-(5-(4-(4,5-difluoro-2-(2-hydroxypropan-2-yl)phenylamino)-1,3,5-triazin-2-ylamino)-2-(3-(dimethylamino)pyrrolidin-1-yl)-4-methoxyphenyl)acry lamide], the half-inhibitory concentration (IC50) – broadly, the concentration needed to halve the response being measured – in [1] is 28.3 nM; in test [2], 19.4 nM; on EGFR L858R&T790M it was 0.7 nM; in [3] it was 15.6 nM; at WT EGFR, 34.8 nM. Also, the GI50 (as a rule, the concentration at which growth is held to half of that of the control) came to 57.9 nM in the test with Ba/F3 EGFR NPH ins cells; 64.7 nM in the test with Ba/F3 EGFR ASV ins cells; 5.2 nM in test [4]; 106 nM in test [5]; 26.2 nM in the test with WT EGFR cell line A-431; 17.7 nM in the test with OCI-LY-10 cells. Besides, the concentration for 50% growth inhibition (GI50) was 11.6 nM in the test on TMD-8 cells, 120 nM in the test with Ri-1 cells and greater than 3000 nM in the test with DB cells.

With `C=CC(=O)Nc1cc(Nc2ncnc(Nc3cc(Cl)c(F)cc3C(C)(C)O)n2)c(OC)cc1N1CC[C@@H]2CN(C)C[C@@H]21` [Compound 28, N-(5-(4-(5-chloro-4-fluoro-2-(2-hydroxypropan-2-yl)phenylamino)-1,3,5-triazin-2-ylamino)-4-methoxy-2-((3aR,6aR)-5-methylhexahydropyrrolo[3,4-b]pyrrol-1 (2H)-yl)phenyl)acrylamide], the half-inhibitory concentration (IC50) came to 50.6 nM in [1]; 21.7 nM in test [2]; 1.4 nM at EGFR L858R&T790M; 15.2 nM in test [3]; 42.1 nM against WT EGFR. Further, the GI50 amounted to 67.7 nM with Ba/F3 EGFR NPH ins cells; 58.2 nM in the test on Ba/F3 EGFR ASV ins cells; 8.9 nM in test [4]; 114 nM in test [5]; 21.2 nM in the test on WT EGFR cell line A-431; 119 nM in the test with OCI-LY-10 cells. In addition, the GI50 in the test with TMD-8 cells was 34 nM; in the test with Ri-1 cells, 230 nM; in the test with DB cells, greater than 3000 nM.

With `C=CC(=O)Nc1cc(Nc2ncnc(Nc3cc(Cl)c(F)cc3C(C)(C)O)n2)c(OC)cc1N(C)CCN1CCCC1` [Compound 29, N-(5-(4-(5-chloro-4-fluoro-2-(2-hydroxypropan-2-yl)phenylamino)-1,3,5-triazin-2-ylamino)-4-methoxy-2-(methyl(2-(pyrrolidin-1-yl)ethyl)amino)phenyl)acrylamide], the IC50 in test [1] was 22.9 nM; in [2], 17.4 nM; at EGFR L858R&T790M, 1 nM; in test [3] it was 7.6 nM; at WT EGFR it was 45.3 nM. Also, the GI50 in the test with Ba/F3 EGFR NPH ins cells was found to be 52.7 nM; in the test on Ba/F3 EGFR ASV ins cells, 45.2 nM; in test [4], 6.9 nM; in test [5], 68.3 nM; in the test on WT EGFR cell line A-431, 20.1 nM; in the test on OCI-LY-10 cells, 35.5 nM. For the same molecule, the GI50 in the test with TMD-8 cells was 11.3 nM; with Ri-1 cells it was 44.8 nM; in the test with DB cells, greater than 3000 nM.

On to `C=CC(=O)Nc1cc(Nc2ncnc(Nc3cc(Cl)c(F)cc3C(C)(C)O)n2)c(OC)cc1N(C)C[C@H]1CCCN1C` [Compound 30, (R)-N-(5-(4-(5-chloro-4-fluoro-2-(2-hydroxypropan-2-yl)phenylamino)-1,3,5-triazin-2-ylamino)-4-methoxy-2-(methyl((1-methylpyrrolidin-2-yl)methyl)amino)phenyl) acrylamide], for which the half-inhibitory concentration (IC50) was found to be 11.1 nM in [1]; 5.7 nM in test [2]; 0.5 nM on EGFR L858R&T790M; 5.5 nM in [3]; 13.2 nM against WT EGFR. For the same molecule, the GI50 in the test with Ba/F3 EGFR NPH ins cells was found to be 19.3 nM; in the test with Ba/F3 EGFR ASV ins cells it was 25.9 nM; in test [4] it was 3.7 nM; in test [5], 47.5 nM; in the test on WT EGFR cell line A-431, 12.4 nM; in the test on OCI-LY-10 cells it was 13.1 nM. The GI50 in the test on TMD-8 cells was 17.8 nM; in the test on Ri-1 cells, 28.6 nM; with DB cells, greater than 3000 nM.

As to `C=CC(=O)Nc1cc(Nc2ncnc(Nc3cc(Cl)c(F)cc3C(C)(C)O)n2)c(OC)cc1N1CCC[C@@H]1CN(C)C` [Compound 31, (R)-N-(5-(4-(5-chloro-4-fluoro-2-(2-hydroxypropan-2-yl)phenylamino)-1,3,5-triazin-2-ylamino)-2-(2-((dimethylamino)methyl)pyrrolidin-1-yl)-4-methoxyphenyl)acrylamide], the half-inhibitory concentration (IC50) came out at 13.8 nM in test [1]; 5 nM in test [2]; 0.5 nM at EGFR L858R&T790M; 4.3 nM in [3]; 5.5 nM against WT EGFR. In addition, the concentration for 50% growth inhibition (GI50) in the test on Ba/F3 EGFR NPH ins cells came to 47.9 nM; with Ba/F3 EGFR ASV ins cells, 9.2 nM; in test [4], 4.2 nM; in test [5], 60.1 nM; with WT EGFR cell line A-431, 4.2 nM; with OCI-LY-10 cells it was 30 nM. In addition, the GI50 in the test with TMD-8 cells was 7.18 nM; with Ri-1 cells, 59.9 nM; in the test on DB cells it was greater than 3000 nM.

For the molecule `C=CC(=O)Nc1cc(Nc2ncnc(Nc3cc4ccn(C)c4cc3C(C)(C)O)n2)c(OC)cc1N(C)CCN(C)C` [Compound 32, N-(2-((2-(dimethylamino)ethyl)(methyl)amino)-5-(4-(6-(2-hydroxypropan-2-yl)-1-methyl-1H-indol-5-ylamino)-1,3,5-triazin-2-ylamino)-4-methoxyphenyl)acrylamide], the IC50 came to 14.8 nM in test [1]; 3.7 nM in [2]; 0.4 nM at EGFR L858R&T790M; 7.8 nM in test [3]; 11 nM on WT EGFR. The 50% growth inhibitory concentration (GI50) in the test with Ba/F3 EGFR NPH ins cells was 19.1 nM; in the test on Ba/F3 EGFR ASV ins cells, 19.3 nM; in test [4], 1.8 nM; in [5], 35.2 nM; in the test with WT EGFR cell line A-431, 6 nM; with OCI-LY-10 cells it was 0.29 nM. In addition, the figures for the GI50 in the test with TMD-8 cells, with Ri-1 cells and in the test on DB cells were 0.26 nM, 0.71 nM and greater than 3000 nM, respectively.

As to `C=CC(=O)Nc1cc(Nc2ncnc(Nc3cc(F)c(C4CC4)cc3C(C)(C)O)n2)c(OC)cc1N(C)CCN(C)C` [Compound 34, N-(5-(4-(4-cyclopropyl-5-fluoro-2-(2-hydroxypropan-2-yl)phenylamino)-1,3,5-triazin-2-ylamino)-2-((2-(dimethylamino)ethyl)(methyl)amino)-4-methoxyphenyl)acrylamide], the IC50 in test [1] came out at 6.2 nM; in [2], 4.4 nM; at EGFR L858R&T790M, 0.5 nM; in [3] it was 4.2 nM; against WT EGFR, 6 nM. Besides, the GI50 in the test on Ba/F3 EGFR NPH ins cells worked out at 16.4 nM; in the test on Ba/F3 EGFR ASV ins cells, 17.6 nM; in test [4], 1.6 nM; in test [5], 21.1 nM; in the test on WT EGFR cell line A-431, 7.5 nM; with OCI-LY-10 cells it was 7.6 nM. The GI50 is 12.3 nM with TMD-8 cells, 16.6 nM in the test on Ri-1 cells and greater than 3000 nM with DB cells.

In the case of `C=CC(=O)Nc1cc(Nc2ncnc(Nc3cc(F)c(F)cc3C(C)(C)O)n2)c(OC)cc1N1CCOC[C@@H]1CN(C)C` [Compound 35, (S)-N-(5-(4-(4,5-difluoro-2-(2-hydroxypropan-2-yl)phenylamino)-1,3,5-triazin-2-ylamino)-2-(3-((dimethylamino)methyl)morpholino)-4-methoxyphenyl) acrylamide], the IC50 in test [1] is 9.2 nM; in test [2], 5.4 nM; at EGFR L858R&T790M, 0.5 nM; in test [3] it was 4.7 nM; on WT EGFR, 13.9 nM. The concentration for 50% growth inhibition (GI50) in the test on Ba/F3 EGFR NPH ins cells stood at 22.2 nM; with Ba/F3 EGFR ASV ins cells, 24.3 nM; in [4] it was 1.5 nM; in test [5] it was 39.4 nM; with WT EGFR cell line A-431, 21.9 nM; in the test with OCI-LY-10 cells, 986 nM. The concentration for 50% growth inhibition (GI50) was 377 nM with TMD-8 cells, 699 nM in the test with Ri-1 cells and greater than 3000 nM in the test on DB cells.

These data come from patent publication US20230293535A1, “ERBB/BTK INHIBITORS” (Dizal (Jiangsu) Pharmaceutical Co., Ltd., priority 2018, published 2023).
